ChEMBL document CHEMBL1201862, “PubChem BioAssay data set” (2004)
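In this assay, cells in 96-well plates receive the compound at five concentrations for 48 hours. Endpoints are linearly interpolated between the surrounding concentrations. Here, GI50 denotes the concentration required for 50% inhibition of growth.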 Activity calls are given as the source filed them. Rule as the data show it: active = GI50 up to about 1.1 µM and inactive = higher.

Assays:
Test in all cases: NCI anticancer screen, dose series, 48 h
[1] = system: A498
[2] = system: A549
[3] = system: DMS-114
[4] = system: DMS-273
[5] = system: EKVX
[6] = system: HCC 2998
[7] = system: HOP-18
[8] = system: IGROV-1
[9] = system: MCF7
[10] = system: MOLT-4
[11] = system: NCI/ADR-RES
[12] = system: OVCAR-3
[13] = system: OVCAR-4
[14] = system: RPMI-8226
[15] = system: RXF 393
[16] = system: SK-MEL-28
[17] = system: SK-MEL-5
[18] = system: SW-620
[19] = system: U-251
[20] = system: M14

Measured: GI50

CCCC(O)C(NC(=O)CCl)C(=O)O (stereo unspecified)
inactive: [1] > 100 µM | [2] > 100 µM | [3] > 100 µM | [4] > 100 µM | [5] > 100 µM | [6] > 100 µM | [7] > 100 µM | [8] > 100 µM | [9] > 100 µM | [10] > 100 µM | [11] > 100 µM | [12] > 100 µM | [13] > 100 µM | [14] > 100 µM | [15] > 100 µM | [16] > 100 µM | [17] > 100 µM | [18] > 100 µM | [19] > 100 µM

CSCCC(NC(=O)C(Cc1ccccc1)NC(=O)CNC(=O)CNC(=O)C(N)Cc1ccc(O)cc1)C(=O)O (stereo unspecified)
inactive: [1] > 100 µM | [2] > 100 µM | [3] > 100 µM | [4] > 100 µM | [5] > 100 µM | [6] > 100 µM | [7] > 100 µM | [8] > 100 µM | [9] > 100 µM | [10] > 100 µM | [11] > 100 µM | [12] > 100 µM | [13] > 100 µM | [15] > 100 µM | [16] > 100 µM | [17] > 100 µM | [18] > 100 µM | [19] > 100 µM

COc1ccc2c(c1O)C(=O)C(CCC(=O)O)CC2 (stereo unspecified)
inactive: [1] > 100 µM | [2] > 100 µM | [3] > 100 µM | [4] > 100 µM | [5] > 100 µM | [6] > 100 µM | [7] > 100 µM | [8] > 100 µM | [20] > 100 µM | [10] > 100 µM | [12] > 100 µM | [13] > 100 µM | [14] > 100 µM | [15] > 100 µM | [16] > 100 µM | [17] > 100 µM | [18] > 100 µM | [19] > 100 µM

O=P(Nc1ccccc1)(Oc1ccccc1)N(CCCl)CCCl (stereo unspecified)
inactive: [1] > 100 µM | [2] 94 µM | [3] 60.1 µM | [4] > 100 µM | [5] > 100 µM | [6] > 100 µM | [7] > 100 µM | [8] > 100 µM | [20] 91.8 µM | [10] > 100 µM | [12] > 100 µM | [13] > 100 µM | [16] > 100 µM | [17] 39.4 µM | [18] > 100 µM | [19] > 100 µM

C[C@]12C/C(=C/O)C(=O)C(O)=C1CC[C@@H]1C2CC[C@@]2(C)C1CC[C@@H]2O (stereo partly specified)
inactive: [1] 23.6 µM | [2] 57.8 µM | [3] 18.2 µM | [4] 23.5 µM | [5] 26.3 µM | [7] 33.7 µM | [8] 21.7 µM | [20] 17.9 µM | [10] 26.4 µM | [12] 17.9 µM | [13] 23.9 µM | [14] 17.6 µM | [15] 20.7 µM | [16] 21.5 µM | [17] 20.2 µM | [18] 37 µM | [19] > 10 µM

COc1cc(CC2c3cc(OC)c(OC)cc3CCN2C)c(Oc2cc3c(cc2OC)-c2c(OC)c(OC)c(OC)c4c2C(C3)N(C)CC4)cc1OC (stereo unspecified)
inactive: [1] 15.3 µM | [2] 15.9 µM | [3] 12.1 µM | [4] 12.5 µM | [5] 16.6 µM | [6] 5.32 µM | [7] 16.4 µM | [8] 14.3 µM | [20] 2.4 µM | [10] 4.52 µM | [12] 12.3 µM | [13] 16 µM | [14] 14 µM | [15] 2.9 µM | [16] 9.64 µM | [17] 4.33 µM | [18] 15.6 µM | [19] 12.6 µM

NC(=O)c1ncn2c1NCC1OC2C(O)C1O (stereo unspecified)
inactive: [1] > 100 µM | [2] > 100 µM | [3] > 100 µM | [4] > 100 µM | [5] > 100 µM | [6] > 100 µM | [7] > 100 µM | [8] > 100 µM | [20] > 100 µM | [10] > 100 µM | [12] > 100 µM | [13] > 100 µM | [15] > 100 µM | [16] > 100 µM | [17] > 100 µM | [18] > 100 µM | [19] > 100 µM

C[C@@H](N[C@H]1CCC[C@@H]1O)c1ccccc1.C[C@@H](N[C@H]1CCC[C@H]1O)c1ccccc1
inactive: [1] > 100 µM | [2] > 100 µM | [3] > 100 µM | [4] > 100 µM | [5] > 100 µM | [6] 65.8 µM | [7] 48.8 µM | [8] > 100 µM | [20] 49 µM | [10] 51.5 µM | [12] > 100 µM | [13] > 100 µM | [14] 53.7 µM | [15] > 100 µM | [16] 58.3 µM | [17] 57.7 µM | [18] 61.4 µM | [19] 48.1 µM
